# “Also recorded” adds a separate entry of the source.
# Columns and labels:
# [1] = test system: aMinoC1-peptide complex; assay: SPR rechallenge: small-molecule-driven dissociation of peptide-Fc from immobilized aMinoC1; format: binding; conditions: peptide-Fc 100 nM, small molecule 1 μM
# Method: Binding assays were carried out using 1x HBS-EP+ running buffer. Various concentrations (2.5 μM with 2-fold serial dilutions) of the analyte were injected for 150 s at 30 μL/min with 150 s dissociation time. Glycine-HCl (pH 2.0) was used as the regeneration buffer for the sensor chips. For the rechallenge experiment, aMinoC1 was immobilized on a CM5 sensor chip and CX7C peptide-Fc conjugates were loaded at 100 nM and injected as the analyte for 150 s at 30 μL/min. Following the injection of peptide-Fc, a small molecule at 1 μM was injected for 300 s at 30 μL/min, using dual injection function on a Biacore 8k instrument, to dissociate the peptide-Fc from the aMinoC1-peptide complex. The system was then washed using HBS-P^+ buffer for 300 s at 30 μL/min prior to rechallenge with peptide-Fc. The cycle was repeated three times following a final dissociation step of 300 s. For the alanine scanning experiments, the anti-minocycline antibody (sdAb-muIgG2a-Fc fusion) was captured on a Protein A series S sensor chip, to a density of 3000 RU. […] Glycine-HCl (pH 1.5) was used as the regeneration buffer. In each case, flow cell 1 was used for reference subtraction, and a “0 concentration” sensogram of buffer alone was used as a double reference subtraction to factor for drift. Data analysis was carried out using Biacore T200 Evaluation Software, version 3.0, and Biacore Insight evaluation software. The 1:1 Langmuir binding model was used to calculate the association (ka), dissociation (kd) rate constants, and equilibrium dissociation constant (KD).
# [2] = test system: MyD88/CD40 signaling in transduced PBMCs; assay: IFN-γ secretion of PBMCs with aMinoC1/GWARA-MyD88/CD40 module; format: cell-based, human; conditions: increasing concentrations of minocycline
# Method: (§1) IFN-γ, IL2, and IL12 secretion was measured by collecting the supernatant from the respective cell-based assay and frozen at −20 °C prior to analysis by ELISA. IFN-γ, IL2, and IL12 ELISAs were carried out using the Human IFN-γ ELISA MAX Deluxe kit, Human IL2 ELISA MAX Deluxe kit, and Human IL12 (p70) ELISA MAX Deluxe kit in accordance with the manufacturer’s instructions (BioLegend).
# [3] = test system: MinoUniCAR-transduced PBMCs against SupT1-EGFR+ cells; assay: MinoUniCAR cytotoxicity with EGFR-peptide adaptor; format: cell-based, human; conditions: 10 μM minocycline, 24 h, 1:2 E/T
# Method: Transduced CAR T cells were determined by staining for the transduction marker RQR8 and normalized by the addition of nontransduced T cells. Effector cells were cocultured with 5.0 × 10^4 number of target cells (SupT1-NT, SupT1-EGFR+, SKOV3-mKate) to achieve the desired effector cell to target ratio. Where appropriate, minocycline was supplemented as a part of the culture conditions. Cocultures were incubated for 24–72 h at 37 °C and 5% CO2. After incubation, plates were centrifuged at 400g for 5 min, and the supernatant containing secreted cytokines was collected for cytokine analysis. Cells were stained with anti-hCD34-APC and anti-CD3-PeCy7 to differentiate effector T cells and target cells. Cells were washed with 300 μL o PBS and stained with SYTOX Blue Dead Cell Stain dye. The percentage of target cell survival was measured relative to the number of live target cells cocultured with nonspecific CAR T cells or nontransduced PBMCs.
# (§2) Transduced PBMCs were stained using RQR8 expression and V5 markers. Cells were then normalized to 50% efficiency by diluting with nontransduced T cells. The tumor-targeting adaptor protein (EGFR sdAb) fused to the GWARA peptide was separately expressed by CHO cell transient transfection and purified by His-tag chromatography. […] IFN-γ secretion was measured as described above.
# [4] = test system: MinoUniCAR-transduced PBMCs; assay: MinoUniCAR IFN-γ release with EGFR-peptide adaptor; format: cell-based, human; conditions: 10 vs 0 μM minocycline
# Method: as §1, §2
# [5] = test system: SupT1 GWARA-CD8stk-CD28TM and SupT1 aMinoC1-CD8stk-CD28TM cells; assay: Cell–cell binding assay (aggregate formation); format: cell-based, human; conditions: 10 μM minocycline, 24 h time course
# Method: SupT1 cells were transduced to express GWARA-CD8a spacer-CD28TM-2A-mCherry and aMinoC1 sdAb-CD8 spacer-CD28TM-2A-eGFP. 0.5 × 10^4 cells were cocultured in RPMI (RPMI-1640) supplemented with 10% fetal bovine serum (FBS) and 2 mM GlutaMAX. […] Images were captured using an IncuCyte real-time imager. Time-course images were analyzed using ImageJ (NIH v1.53t) using an image analyzer (20 px^2-infinite size, 0.0–1.0 circularity).
structure (smiles),measurement,setting,value
CN(C)c1ccc(O)c2c1C[C@H]1C[C@H]3[C@H](N(C)C)C(O)=C(C(N)=O)C(=O)[C@@]3(O)C(O)=C1C2=O [minocycline],GWARA-Fc dissociation from immobilized aMinoC1 on small-molecule injection,[1],acceleration of GWARA-Fc dissociation; also recorded: specifically reversed
same,"peptide-Fc (HWAQA, PWAYS and QWAMM) dissociation from immobilised aMinoC1 on small-molecule injection",[1],acceleration
same,decrease of IFN-γ secretion,[2],2 fold
same,target cell survival,[3],95%
same,cytokine (IFN-γ) reduction,[4],10 fold
same,cell aggregate formation,[5],random distribution of cells without a clear spatial organization
